Values joined by “and” are separate entries in the source; they are usually repeats but may differ in a detail not shown here. Equal entries are not always repeated. Where two headings read alike, the source gives them in different places.
Assay: Pharmacokinetics in Sprague Dawley rats (plasma and brain concentrations, PK parameters)
Format: in vivo
Details: for Concentration Rat 4 / Concentration Rat 5 / Concentration Rat 6: po 10 mg/kg
Protocol: Pharmacokinetics for I-127, I-172 and I-210 were determined in Sprague Dawley rats or CD-1 mice by dosing intravenous (IV), subcutaneous (SC) or per oral (PO) using facility SOPs and sampling plasma at required time points. Species, formulation, route of administration and time points samples are listed below for each compound.
Compounds were extracted from plasma, injected on reverse phase HPLC, eluted with a gradient from 5% to 95% acetonitrile in water and quantified by mass spectrometry with internal standard. Data are expressed in ng compound per mL of plasma.

[1] = Rat (Sprague Dawley) po 10 mg/kg, Mean
[2] = Rat (Sprague Dawley) po 10 mg/kg, individual Rat 4-6, 10 mg/kg
[3] = Sprague Dawley rat, iv 3 mg/kg, Rat 1
[4] = Sprague Dawley rat, iv 3 mg/kg, Rat 2
[5] = Sprague Dawley rat, iv 3 mg/kg, Rat 3
[6] = Sprague Dawley rat, iv 3 mg/kg, mean of 3 rats
[7] = Sprague Dawley rat, plasma, 0 h
[8] = Sprague Dawley rat, plasma, 24 h

- brain Detected Conc. (Rat (Sprague Dawley) iv 3 mg/kg (IVB), brain homogenate 1:2 in PBS, 0.083 h, Group 1, Group 2, 3 mg/kg): 11.8 ng/mL
- brain Detected Conc. (Rat (Sprague Dawley) iv 3 mg/kg (IVB), brain homogenate 1:2 in PBS, 0.25 h, Group 1, Group 2, 3 mg/kg): 12.9 ng/mL
- brain Detected Conc. (Rat (Sprague Dawley) iv 3 mg/kg (IVB), brain homogenate 1:2 in PBS, 1 h, Group 1, Group 2, 3 mg/kg): 17.5 ng/mL
- brain Detected Conc. (Rat (Sprague Dawley) iv 3 mg/kg (IVB), brain homogenate 1:2 in PBS, 4 h, Group 1, Group 2, 3 mg/kg): 12.4 ng/mL
- brain Actual Conc. (Rat (Sprague Dawley) iv 3 mg/kg (IVB), brain, 0.083 h, Group 1, Group 2, detected value multiplied by 3, 3 mg/kg): 35.4 ng/g
- brain Actual Conc. (Rat (Sprague Dawley) iv 3 mg/kg (IVB), brain, 0.25 h, Group 1, Group 2, detected value multiplied by 3, 3 mg/kg): 38.7 ng/g
- brain Actual Conc. (Rat (Sprague Dawley) iv 3 mg/kg (IVB), brain, 1 h, Group 1, Group 2, detected value multiplied by 3, 3 mg/kg): 52.5 ng/g
- brain Actual Conc. (Rat (Sprague Dawley) iv 3 mg/kg (IVB), brain, 4 h, Group 1, Group 2, detected value multiplied by 3, 3 mg/kg): 37.2 ng/g
- AUC_%Extrap_obs [1]: 42.3%
- AUClast/D [1]: 1.52 kg·ng·h/mL/mg
- F [1]: 0.385%
- AUC_%Extrap_obs [2]: 33.5% and 48.7% and 44.8%
- Cmax [2]: 3.50 ng/mL and 4.02 ng/mL and 1.20 ng/mL
- F [2]: 0.450% and 0.536% and 0.169%
- MRTInf_obs [2]: 10.2 h and 9.35 h
- T1/2 [2]: 5.65 h and 5.28 h
- AUC_%Extrap_obs Rat 1 [3]: 0.140%
- AUClast/D Rat 1 [3]: 414 kg·ng·h/mL/mg
- Cl_obs Rat 1 [3]: 40.2 mL/min/kg
- Vss_obs Rat 1 [3]: 7.85 L/kg
- AUC_%Extrap_obs Rat 2 [4]: 0.183%
- AUClast/D Rat 2 [4]: 403 kg·ng·h/mL/mg
- Cl_obs Rat 2 [4]: 41.2 mL/min/kg
- Vss_obs Rat 2 [4]: 7.79 L/kg
- AUC_%Extrap_obs Rat 3 [5]: 0.185%
- AUClast/D Rat 3 [5]: 364 kg·ng·h/mL/mg
- Cl_obs Rat 3 [5]: 45.7 mL/min/kg
- Vss_obs Rat 3 [5]: 8.00 L/kg
- AUC_%Extrap_obs Mean [6]: 0.169%
- AUClast/D Mean [6]: 394 kg·ng·h/mL/mg
- Cl obs Mean [6]: 42 mL/min/kg
- Vss_obs Mean [6]: 7.88 L/kg
- Concentration Rat 1 (Sprague Dawley rat, iv 3 mg/kg, plasma, 0 h, Rat 1): BLOQ
- Concentration Rat 2 (Sprague Dawley rat, iv 3 mg/kg, plasma, 0 h, Rat 2): BLOQ
- Concentration Rat 3 (Sprague Dawley rat, iv 3 mg/kg, plasma, 0 h, Rat 3): BLOQ
- Concentration Rat 4 [7]: BLOQ
- Concentration Rat 5 [7]: BLOQ
- Concentration Rat 6 [7]: BLOQ
- Concentration Rat 4 [8]: BLOQ
- Concentration Rat 5 [8]: BLOQ
- Concentration Rat 6 [8]: BLOQ
- concentration at 0.083 h (Sprague Dawley, rat, brain homogenate, iv, 3 mg/kg, Rat (Sprague Dawley) iv 3 mg/kg (IVB), brain homogenate 1:2 in PBS, 0.083 h, Group 1, Group 2, read-out: brain Detected Conc.): 17.2 ng/mL
- concentration at 0.25 h (Sprague Dawley, rat, brain homogenate, iv, 3 mg/kg, Rat (Sprague Dawley) iv 3 mg/kg (IVB), brain homogenate 1:2 in PBS, 0.25 h, Group 1, Group 2, read-out: brain Detected Conc.): 13.2 ng/mL
- concentration at 1 h (Sprague Dawley, rat, brain homogenate, iv, 3 mg/kg, Rat (Sprague Dawley) iv 3 mg/kg (IVB), brain homogenate 1:2 in PBS, 1 h, Group 1, Group 2, read-out: brain Detected Conc.): 13.3 ng/mL
- concentration at 4 h (Sprague Dawley, rat, brain homogenate, iv, 3 mg/kg, Rat (Sprague Dawley) iv 3 mg/kg (IVB), brain homogenate 1:2 in PBS, 4 h, Group 1, Group 2, read-out: brain Detected Conc.): 14.2 ng/mL
- concentration at 0.083 h (Sprague Dawley, rat, brain, iv, 3 mg/kg, Rat (Sprague Dawley) iv 3 mg/kg (IVB), brain, 0.083 h, Group 1, Group 2, detected value multiplied by 3, read-out: brain Actual Conc.): 51.6 ng/g
- concentration at 0.083 h (Sprague Dawley, rat, brain, iv, 3 mg/kg, Rat (Sprague Dawley) iv 3 mg/kg (IVB), brain, 0.083 h, Mean, read-out: brain Actual Conc.): 43.5 ng/g
- concentration at 0.25 h (Sprague Dawley, rat, brain, iv, 3 mg/kg, Rat (Sprague Dawley) iv 3 mg/kg (IVB), brain, 0.25 h, Group 1, Group 2, detected value multiplied by 3, read-out: brain Actual Conc.): 39.6 ng/g
- concentration at 0.25 h (Sprague Dawley, rat, brain, iv, 3 mg/kg, Rat (Sprague Dawley) iv 3 mg/kg (IVB), brain, 0.25 h, Mean, read-out: brain Actual Conc.): 39.2 ng/g
- concentration at 1 h (Sprague Dawley, rat, brain, iv, 3 mg/kg, Rat (Sprague Dawley) iv 3 mg/kg (IVB), brain, 1 h, Group 1, Group 2, detected value multiplied by 3, read-out: brain Actual Conc.): 39.9 ng/g
- concentration at 1 h (Sprague Dawley, rat, brain, iv, 3 mg/kg, Rat (Sprague Dawley) iv 3 mg/kg (IVB), brain, 1 h, Mean, read-out: brain Actual Conc.): 46.2 ng/g
- AUC(0-inf) (Sprague Dawley, rat, plasma, iv, 3 mg/kg, Sprague Dawley rat, iv 3 mg/kg, Rat 1, read-out: AUCInf Rat 1): 1240 ng·h/mL
- AUC(0-t) (Sprague Dawley, rat, plasma, iv, 3 mg/kg, Sprague Dawley rat, iv 3 mg/kg, Rat 1, read-out: AUClast Rat 1): 1240 ng·h/mL
- C0 (Sprague Dawley, rat, plasma, iv, 3 mg/kg, Sprague Dawley rat, iv 3 mg/kg, Rat 1, read-out: C0 Rat 1): 873 ng/mL
- half-life (Sprague Dawley, rat, plasma, iv, 3 mg/kg, Sprague Dawley rat, iv 3 mg/kg, Rat 1, read-out: T1/2 Rat 1 (converted)): 2.66 h
- AUC(0-inf) (Sprague Dawley, rat, plasma, iv, 3 mg/kg, Sprague Dawley rat, iv 3 mg/kg, Rat 2, read-out: AUCInf Rat 2): 1210 ng·h/mL
- AUC(0-t) (Sprague Dawley, rat, plasma, iv, 3 mg/kg, Sprague Dawley rat, iv 3 mg/kg, Rat 2, read-out: AUClast Rat 2): 1210 ng·h/mL
- C0 (Sprague Dawley, rat, plasma, iv, 3 mg/kg, Sprague Dawley rat, iv 3 mg/kg, Rat 2, read-out: C0 Rat 2): 814 ng/mL
- half-life (Sprague Dawley, rat, plasma, iv, 3 mg/kg, Sprague Dawley rat, iv 3 mg/kg, Rat 2, read-out: T1/2 Rat 2 (converted)): 2.83 h
- AUC(0-inf) (Sprague Dawley, rat, plasma, iv, 3 mg/kg, Sprague Dawley rat, iv 3 mg/kg, Rat 3, read-out: AUCInf Rat 3): 1090 ng·h/mL
- AUC(0-t) (Sprague Dawley, rat, plasma, iv, 3 mg/kg, Sprague Dawley rat, iv 3 mg/kg, Rat 3, read-out: AUClast Rat 3): 1090 ng·h/mL
- C0 (Sprague Dawley, rat, plasma, iv, 3 mg/kg, Sprague Dawley rat, iv 3 mg/kg, Rat 3, read-out: C0 Rat 3): 855 ng/mL
- half-life (Sprague Dawley, rat, plasma, iv, 3 mg/kg, Sprague Dawley rat, iv 3 mg/kg, Rat 3, read-out: T1/2 Rat 3 (converted)): 2.88 h
- AUC(0-inf) (Sprague Dawley, rat, plasma, iv, 3 mg/kg, Sprague Dawley rat, iv 3 mg/kg, mean of 3 rats, read-out: AUCInf Mean): 1180 ng·h/mL
- AUC(0-t) (Sprague Dawley, rat, plasma, iv, 3 mg/kg, Sprague Dawley rat, iv 3 mg/kg, mean of 3 rats, read-out: AUClast Mean): 1180 ng·h/mL
- C0 (Sprague Dawley, rat, plasma, iv, 3 mg/kg, Sprague Dawley rat, iv 3 mg/kg, mean of 3 rats, read-out: C0 Mean): 848 ng/mL
- half-life (Sprague Dawley, rat, plasma, iv, 3 mg/kg, Sprague Dawley rat, iv 3 mg/kg, mean of 3 rats, read-out: T1/2 Mean (converted)): 2.79 h
- AUC(0-inf) (Sprague Dawley, rat, plasma, po, 10 mg/kg, Rat (Sprague Dawley) po 10 mg/kg, Mean, read-out: AUCInf): 26.6 ng·h/mL
SMILES: O=C1CCC(N2C(=O)c3cccc(NCCOCCOCCNCc4ccc(-n5cc(NC(=O)c6coc(-c7ccnc(NCC8CC8)c7)n6)c(C(F)F)n5)cc4)c3C2=O)C(=O)N1 (stereo not drawn) [I-210, 2-[2-(Cyclopropylmethylamino)-4-pyridyl]-N-[3-(difluoromethyl)-1-[4-[[2-[2-[2-[[2-(2,6-dioxo-3-piperidyl)-1,3-dioxoisoindolin-4-yl]amino]ethoxy]ethoxy]ethylamino]methyl]phenyl]pyrazol-4-yl]oxazole-4-carboxamide]
- AUClast [2]: 17.7 ng·h/mL and 21.1 ng·h/mL and 6.66 ng·h/mL
